# Laboratory results published in patent US20120100071A1, “SYNTHESIS AND USE OF RADIOLABELLED INSULIN ANALOGUES” (priority 2009, published 2012).
# Tested on: Akt1 phosphorylation (S473) in H4IIE cells
# Assay: Akt1 activation, phospho-Akt1 (Ser473) ELISA
# Type: cell-based
# Settings: FIG. 10c
# Method: The insulin receptor autophosphorylation was assessed through the use of an enzyme-linked immunosorbant assay (ELISA). […] Finally, to probe the downstream signaling resulting from insulin binding, a second ELISA experiment was performed to monitor stimulation of Akt phosphorylation (S473).
# Confluent H4IIE cells were serum deprived for 4 hours in […] β-mercaptoethanol and 0.25% bovine serum albumin. […] Cells were lysed in 0.5 ml 1× Cell Lysis Buffer (Cell Signaling, #7160) and cells broken open by brief sonication. Lysates were collected and centrifuged for 10 minutes at 14,000 rpm. Supernatants were recovered, diluted 1:1 with Sample Diluent, and phospho-Akt1 was quantitated in 100 μL of each diluted supernatant using the PathScan phospho-Akt1 (Ser473) ELISA (Cell Signaling, #7160).
substance,measurement,value
B^1-[Re(CO)3{bis(2-pyridylmethyl)pentanoyl-6-aminohexanoyl)}]insulin [compound 6],Akt phosphorylation (S473) response compared to unmodified human insulin,not significantly different
